According to patent publication US8569288B2, “Thienotriazolodiazepine derivatives active on apo A” (CircoMed LLC, priority 2008, dated 2013):
Where two headings read alike, the source gives them in different places.

What was measured:
[1] = target: central benzodiazepine receptor (BZD); assay: Binding to central benzodiazepine receptor, [3H]flunitrazepam displacement on rat cerebral cortex membranes; settings: for IC50 / % of control specific binding, 1st / % of control specific binding, 2nd / % of control specific binding, mean: 0.4 nM [3H]flunitrazepam
Description: Affinity of the compounds of the invention to the central benzodiazepine receptor (BZD) was measured by determining the binding of 0.4 nM [^3H]flunitrazepam to rat cerebral cortex membranes, and its displacement by compounds of the invention as compared to the reference ligand diazepam, at 4° C. for 60 min, as described by R. C. Speth et al., Life Sci. 24:351-358 (1979).
The specific binding to the receptors is defined as the difference between the total binding and the non-specific binding determined in the presence of an excess of unlabeled ligand (diazepam). The results are expressed as a percent of control specific binding ((measured specific binding/control specific binding)×100) obtained in the presence of compound 5, 6 and 7.
In each experiment, the respective reference compound was tested concurrently with compound 5, 6 and 7 in order to assess the assay suitability. It was tested at several concentrations (for IC50 value determination).

[2] = target: platelet activating factor (PAF) (Homo sapiens, UniProt P25105); settings: known related thienotriazolodiazepine; cited from earlier work
[3] = system: apo A1 secretion in human hepatocytes; assay: Apo A1 secretion by human hepatocytes (ELISA of supernatant, normalised to cell protein); type: cell-based; settings: for Apo A1 (ng secreted per mg cell protein), 1st / Apo A1 (ng secreted per mg cell protein), 2nd / Apo A1 (ng secreted per mg cell protein), mean: 3x24 h; for Apo A1 (ng secreted per mg cell protein), 1st: 1st parallel measurement; for Apo A1 (ng secreted per mg cell protein), 2nd: 2nd parallel measurement; for Apo A1 (ng secreted per mg cell protein), mean: mean of two measurements; for Stimulation of apo A1 secretion versus control level (in words): at concentrations as low as 3 μM, human hepatocytes
Description: Human hepatocytes were isolated from pieces of livers, obtained from donors which could not be used for transplantation, following the procedure described in U.S. Pat. No. 6,444,664. The cells were seeded on culture dishes at a density of 1.5×10^5 viable cells per cm^2 and were maintained for the first 24 h in 1.5 mL per 10 cm^2 of Williams E medium supplemented with 10% heat inactivated fetal calf serum (FCS), 2 mmol/L L-glutamine, 20 mU/mL insulin (135 nmol/L), 50 nmol/L dexamethasone, 100 U/mL penicillin, 100 μg/mL streptomycin and 100 μg/mL kanamycin at 37° C. in a 5% CO2/95% air atmosphere. After 14-16 h the non-adherent cells were washed from the plates, using the same culture medium as described above. 24 h after seeding, the incubations with the compounds were started in 1 mL of the same culture medium, but with an insulin concentration of 10 nmol/L instead of 135 nmol/L.
The human hepatocytes were treated with compounds 5, 6 and 7 (dissolved in DMSO, with the final concentration of DMSO not exceeding 0.1% v/v) at concentrations of 100 μM, 30 μM, 10 μM and 3 μM and incubated for 24 hours. The DMSO concentration in all samples and controls was 0.1%. The control wells contained DMSO (0.1% v/v) alone. The medium on the cells was removed and replaced with fresh medium with fresh compound and incubated for 24 hours. The medium was then again removed and replaced with fresh medium with fresh compound and incubated for another 24 hours. The supernatant was then removed from the cells and levels of apo A1 were determined using a commercially available ELISA (AlerCHEK™) with a HRP conjugated goat anti-apo A1 antibody and TMB/peroxidase substrate colour developer. Supernatants were diluted 1:4 with the wash buffer provided in the kit.
After the last incubation the cells were washed twice with PBS, and BCA (bicinchoninic acid) reagent was added to each well to assay total cellular protein according to standard methods.

[4] = system: plasma apolipoprotein A1 (apo A1); settings: as described in U.S. Pat. No. 5,854,238; cited from earlier work

Sequence of platelet activating factor (PAF) (P25105 whole entry): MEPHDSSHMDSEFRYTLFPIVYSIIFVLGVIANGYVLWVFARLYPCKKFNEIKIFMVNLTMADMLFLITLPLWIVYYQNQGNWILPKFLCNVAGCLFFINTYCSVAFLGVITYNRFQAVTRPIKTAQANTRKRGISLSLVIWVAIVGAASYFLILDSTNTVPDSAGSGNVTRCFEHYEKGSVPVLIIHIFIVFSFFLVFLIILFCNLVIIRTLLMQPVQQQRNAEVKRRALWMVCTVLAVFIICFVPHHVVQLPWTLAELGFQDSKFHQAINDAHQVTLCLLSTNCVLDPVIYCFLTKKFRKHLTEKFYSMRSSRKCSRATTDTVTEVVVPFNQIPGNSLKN

With `CN1C(=O)CN=C(c2ccccc2)c2cc(Cl)ccc21` [diazepam, reference compound] the IC50 ([1]; 4° C., 60 min, read-out: IC50 of reference ligand in BZD binding assay) was 16 nM.
In the case of `Cc1nnc2n1-c1sc(CCC(=O)N3CCOCC3)cc1C(c1ccccc1Cl)=NC2` [WEB2086], the “PAF antagonistic activity (in words)” value [2] is listed as “platelet activating factor (PAF) antagonistic activity”.
For `Cc1nnc2n1-c1sccc1C(c1ccccc1)=NC2` [compound 7, 9-Methyl-4-phenyl-6H-thieno[3,2-f]-s-triazolo[4,3-a][1,4]diazepine, reference compound], the “Affinity to the benzodiazepine receptor (in words)” value (from here on “Affinity”) [1] was “moderate affinity”, the IC50 ([1]; rat cerebral cortex membranes, read-out: IC50 of displacing the labelled ligand) was roughly 500 nM and the “% of control specific binding, 1st” value ([1]; 10^−5 M) was 2.3 % of control specific binding. For the same compound, the “% of control specific binding, 2nd” value ([1]; 10^−5 M) was 1.8 % of control specific binding, the “% of control specific binding, mean” value ([1]; 10^−5 M) was 2.1 % of control specific binding and the “% of control specific binding, 1st” value ([1]; 10^−6 M) was 18.9 % of control specific binding. The “% of control specific binding, 2nd” value ([1]; 10^−6 M) was 17.9 % of control specific binding, the “% of control specific binding, mean” value ([1]; 10^−6 M) was 18.4 % of control specific binding and the “% of control specific binding, 1st” value ([1]; 10^−7 M) was 73.5 % of control specific binding. For the same compound, the “% of control specific binding, 2nd” value ([1]; 10^−7 M) was 68.0 % of control specific binding, the “% of control specific binding, mean” value ([1]; 10^−7 M) was 70.7 % of control specific binding and the “% of control specific binding, 1st” value ([1]; 10^−8 M) was 89.0 % of control specific binding. For the same compound, the “% of control specific binding, 2nd” value ([1]; 10^−8 M) was 104.1 % of control specific binding, the “% of control specific binding, mean” value ([1]; 10^−8 M) was 96.5 % of control specific binding and the “Apo A1 (ng secreted per mg cell protein), 1st” value ([3]; 3 μM) was 91 ng secreted per mg cell protein. For the same compound, the “Apo A1 (ng secreted per mg cell protein), 2nd” value ([3]; 3 μM) was 91 ng secreted per mg cell protein, the “Apo A1 (ng secreted per mg cell protein), mean” value ([3]; 3 μM) was 91 ng secreted per mg cell protein and the “Apo A1 (ng secreted per mg cell protein), 1st” value ([3]; 10 μM) was 266 ng secreted per mg cell protein. The “Apo A1 (ng secreted per mg cell protein), 2nd” value ([3]; 10 μM) was 191 ng secreted per mg cell protein, the “Apo A1 (ng secreted per mg cell protein), mean” value ([3]; 10 μM) was 229 ng secreted per mg cell protein and the “Apo A1 (ng secreted per mg cell protein), 1st” value ([3]; 30 μM) was 236 ng secreted per mg cell protein. The “Apo A1 (ng secreted per mg cell protein), 2nd” value ([3]; 30 μM) was 374 ng secreted per mg cell protein, the “Apo A1 (ng secreted per mg cell protein), mean” value ([3]; 30 μM) was 305 ng secreted per mg cell protein and the “Apo A1 (ng secreted per mg cell protein), 1st” value ([3]; 100 μM) was 254 ng secreted per mg cell protein. The “Apo A1 (ng secreted per mg cell protein), 2nd” value ([3]; 100 μM) was 364 ng secreted per mg cell protein, the “Apo A1 (ng secreted per mg cell protein), mean” value ([3]; 100 μM) was 309 ng secreted per mg cell protein and the “Stimulation of apo A1 secretion versus control level (in words)” value [3] was “clearly less active”. For the same compound, the “Activity in increasing plasma apo A1 (in words)” value [4] was “active in increasing plasma apolipoprotein A1”.
In the case of `Cc1nnc2n1-c1sccc1C(c1ccccc1)=NC2(C)C` [compound 5, 6,6-Dimethyl-4-phenyl-9-methyl-6H-thieno[3,2f]-s-triazolo[4,3-a][1,4]diazepine], the “Affinity” value [1] is reported as “no significant affinity”, the “% of control specific binding, 1st” value ([1]; 10^−6 M) is reported as 90.0 % of control specific binding and the “% of control specific binding, 2nd” value ([1]; 10^−6 M) is reported as 100.4 % of control specific binding. The “% of control specific binding, mean” value ([1]; 10^−6 M) was 95.2 % of control specific binding, the “% of control specific binding, 1st” value ([1]; 10^−7 M) was 91.5 % of control specific binding and the “% of control specific binding, 2nd” value ([1]; 10^−7 M) was 96.7 % of control specific binding. The “% of control specific binding, mean” value ([1]; 10^−7 M) was 94.1 % of control specific binding, the “% of control specific binding, 1st” value ([1]; 10^−8 M) was 102.0 % of control specific binding and the “% of control specific binding, 2nd” value ([1]; 10^−8 M) was 94.3 % of control specific binding. The “% of control specific binding, mean” value ([1]; 10^−8 M) was 98.2 % of control specific binding, the “% of control specific binding, 1st” value ([1]; 10^−9 M) was 88.9 % of control specific binding and the “% of control specific binding, 2nd” value ([1]; 10^−9 M) was 104.6 % of control specific binding. The “% of control specific binding, mean” value ([1]; 10^−9 M) was 96.8 % of control specific binding, the “Apo A1 (ng secreted per mg cell protein), 1st” value ([3]; 3 μM) was 247 ng secreted per mg cell protein and the “Apo A1 (ng secreted per mg cell protein), 2nd” value ([3]; 3 μM) was 124 ng secreted per mg cell protein. For the same compound, the “Apo A1 (ng secreted per mg cell protein), mean” value ([3]; 3 μM) was 185 ng secreted per mg cell protein, the “Apo A1 (ng secreted per mg cell protein), 1st” value ([3]; 10 μM) was 274 ng secreted per mg cell protein and the “Apo A1 (ng secreted per mg cell protein), 2nd” value ([3]; 10 μM) was 156 ng secreted per mg cell protein. For the same compound, the “Apo A1 (ng secreted per mg cell protein), mean” value ([3]; 10 μM) was 215 ng secreted per mg cell protein, the “Apo A1 (ng secreted per mg cell protein), 1st” value ([3]; 30 μM) was 219 ng secreted per mg cell protein and the “Apo A1 (ng secreted per mg cell protein), 2nd” value ([3]; 30 μM) was 227 ng secreted per mg cell protein. The “Apo A1 (ng secreted per mg cell protein), mean” value ([3]; 30 μM) was 223 ng secreted per mg cell protein, the “Apo A1 (ng secreted per mg cell protein), 1st” value ([3]; 100 μM) was 273 ng secreted per mg cell protein and the “Apo A1 (ng secreted per mg cell protein), 2nd” value ([3]; 100 μM) was 277 ng secreted per mg cell protein. The “Apo A1 (ng secreted per mg cell protein), mean” value ([3]; 100 μM) was 275 ng secreted per mg cell protein and the “Stimulation of apo A1 secretion versus control level (in words)” value [3] was “stimulated secetion of apo A1 above the control level”.
With `Cc1nnc2n1-c1sccc1C(c1ccc3c(c1)OCO3)=NC2` [compound 6, 4-(3′,4′-Methylenedioxyphenyl)-9-methyl-6H-thieno[3,2-f]-s-triazolo[4,3-a][1,4]diazepine] the “Affinity” value [1] was “no significant affinity”, the “% of control specific binding, 1st” value ([1]; 10^−6 M) was 88.7 % of control specific binding and the “% of control specific binding, 2nd” value ([1]; 10^−6 M) was 100.5 % of control specific binding. For the same compound, the “% of control specific binding, mean” value ([1]; 10^−6 M) was 94.6 % of control specific binding, the “% of control specific binding, 1st” value ([1]; 10^−7 M) was 104.1 % of control specific binding and the “% of control specific binding, 2nd” value ([1]; 10^−7 M) was 101.3 % of control specific binding. The “% of control specific binding, mean” value ([1]; 10^−7 M) was 102.7 % of control specific binding, the “% of control specific binding, 1st” value ([1]; 10^−8 M) was 92.7 % of control specific binding and the “% of control specific binding, 2nd” value ([1]; 10^−8 M) was 91.0 % of control specific binding. For the same compound, the “% of control specific binding, mean” value ([1]; 10^−8 M) was 91.9 % of control specific binding, the “% of control specific binding, 1st” value ([1]; 10^−9 M) was 110.1 % of control specific binding and the “% of control specific binding, 2nd” value ([1]; 10^−9 M) was 83.2 % of control specific binding. The “% of control specific binding, mean” value ([1]; 10^−9 M) was 96.7 % of control specific binding, the “Apo A1 (ng secreted per mg cell protein), 1st” value ([3]; 3 μM) was 144 ng secreted per mg cell protein and the “Apo A1 (ng secreted per mg cell protein), 2nd” value ([3]; 3 μM) was 160 ng secreted per mg cell protein. For the same compound, the “Apo A1 (ng secreted per mg cell protein), mean” value ([3]; 3 μM) was 152 ng secreted per mg cell protein, the “Apo A1 (ng secreted per mg cell protein), 1st” value ([3]; 10 μM) was 186 ng secreted per mg cell protein and the “Apo A1 (ng secreted per mg cell protein), 2nd” value ([3]; 10 μM) was 212 ng secreted per mg cell protein. For the same compound, the “Apo A1 (ng secreted per mg cell protein), mean” value ([3]; 10 μM) was 199 ng secreted per mg cell protein, the “Apo A1 (ng secreted per mg cell protein), 1st” value ([3]; 30 μM) was 290 ng secreted per mg cell protein and the “Apo A1 (ng secreted per mg cell protein), 2nd” value ([3]; 30 μM) was 293 ng secreted per mg cell protein. For the same compound, the “Apo A1 (ng secreted per mg cell protein), mean” value ([3]; 30 μM) was 292 ng secreted per mg cell protein, the “Apo A1 (ng secreted per mg cell protein), 1st” value ([3]; 100 μM) was 397 ng secreted per mg cell protein and the “Apo A1 (ng secreted per mg cell protein), 2nd” value ([3]; 100 μM) was 276 ng secreted per mg cell protein. For the same compound, the “Apo A1 (ng secreted per mg cell protein), mean” value ([3]; 100 μM) was 336 ng secreted per mg cell protein and the “Stimulation of apo A1 secretion versus control level (in words)” value [3] was “stimulated secetion of apo A1 above the control level”.
